{
  "source": "patent US12680128B2",
  "molecules": {"B1": {"name": "Dcm N436K: CCWGG Dcm Carboxymethyltransferase with a C-terminal His Tag, SEQ ID NO: 3 / SEQ ID NO: 4 (protein)", "chain": "MQENISVTDSYSTGNAAQAMLEKLLQIYDVKTLVAQLNGVGENHWSAAILKRALANDSAWHRLSEKEFAHLQTLLPKPPAHHPHYAFRFIDLFAGIGGIRRGFESIGGQCVFTSEWNKHAVRTYKANHYCDPATHHFNEDIRDITLSHKEGVSDEAAAEHIRQHIPEHDVLLAGFPCQPFSLAGVSKKNSLGRAHGFACDTQGTLFFDVVRIIDARRPAMFVLENVKNLKSHDQGKTFRIIMQTLDELGYDVADAEDNGPDDPKIIDGKHFLPQHRERIVLVGFRRDLNLKADFTLRDISECFPAQRVTLAQLLDPMVEAKYILTPVLWKYLYRYAKKHQARGNGFGYGMVYPNNPQSVTRTLSARYYKDGAEILIDRGWDMATGEKDFDDPLNQQHRPRRLTPRECARLMGFEAPGEAKFRIPVSDTQAYRQFGKSVVVPVFAAVAKLLEPKIKQAVALRQQEAQHGRRSRHHHHHH", "modifications": "C-terminal His tag; Dcm N436K with His tag"}, "B2": {"name": "WT Dcm: E. coli's naturally occurring DNA Cytosine Methyltransferase (Dcm) (protein, UniProt P0AED9 1-472, looked up)", "DNA-cytosine methyltransferase": "MQENISVTDSYSTGNAAQAMLEKLLQIYDVKTLVAQLNGVGENHWSAAILKRALANDSAWHRLSEKEFAHLQTLLPKPPAHHPHYAFRFIDLFAGIGGIRRGFESIGGQCVFTSEWNKHAVRTYKANHYCDPATHHFNEDIRDITLSHKEGVSDEAAAEHIRQHIPEHDVLLAGFPCQPFSLAGVSKKNSLGRAHGFACDTQGTLFFDVVRIIDARRPAMFVLENVKNLKSHDQGKTFRIIMQTLDELGYDVADAEDNGPDDPKIIDGKHFLPQHRERIVLVGFRRDLNLKADFTLRDISECFPAQRVTLAQLLDPMVEAKYILTPVLWKYLYRYAKKHQARGNGFGYGMVYPNNPQSVTRTLSARYYKDGAEILIDRGWDMATGEKDFDDPLNQQHRPRRLTPRECARLMGFEAPGEAKFRIPVSDTQAYRQFGNSVVVPVFAAVAKLLEPKIKQAVALRQQEAQHGRRSR"}},
  "key": {"[1]": {"target": "APOBEC3A (A3A) (Homo sapiens, UniProt P31941)", "sequence (P31941 whole entry)": "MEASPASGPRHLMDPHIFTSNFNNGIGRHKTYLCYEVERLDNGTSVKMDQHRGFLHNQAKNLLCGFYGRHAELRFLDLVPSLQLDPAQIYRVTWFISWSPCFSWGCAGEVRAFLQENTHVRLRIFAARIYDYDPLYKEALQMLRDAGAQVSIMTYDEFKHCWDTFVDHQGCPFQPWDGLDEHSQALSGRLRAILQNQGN", "test": "A3A deamination of ssDNA with homogeneously 5-modified cytosines (TA cloning assay)", "assay_type": "biochemical", "conditions": "8 μM A3A, 37° C., two hours", "experimental": "Single stranded DNA with homogenously modified cytosines was obtained by LATE-PCR as previously described (Schutsky et al. Nucleic Acids Res 2017). Modified triphosphates were obtained from TriLink unless otherwise noted here (mC: NEB, peC/pC: synthesized in house, purified by ion-pair chromatography, Ghanty et al. JACS 2018). 1 ng of purified single stranded DNA was incubated with 8 μM A3A at 37° C. for two hours. This 202 base pair amplicon was PCR amplified and TA cloned. Single clones were sent for Sanger Sequencing. After alignment to the parent 202mer substrate (Table 1), C to T conversions were quantified as a percentage of total Cs.\nTo determine more exact parameters that define the discrimination as a function of sterics at the C5 position, we synthesized or obtained dxCTP analogs, with variable (x) 5-position substituents, and used established approaches to generate long ssDNA substrates with homogeneous C modifications (36). These substrates were reacted with A3A, reamplified and analyzed for deamination by restriction digestion at a specific site."}, "[2]": {"system": "plasmid DNA CpG sites", "assay_type": "cell-based, E. coli"}, "[3]": {"system": "pUC19 plasmid DNA", "test": "pUC19 assay (in vitro transfer of SAM or CxSAM, HpaII/HhaI challenge)"}, "[4]": {"system": "unmethylated phage gDNA CpG sites", "test": "Amplicon sequencing of phage gDNA treated with M.MpeI N374K and SAM or CxSAM, then bisulfite or A3A"}, "[5]": {"system": "pMG81-M.MpeI plasmid CCGG sites", "conditions": "in vivo, plasmid recovered after induced expression"}, "[6]": {"system": "E. coli genomic DNA CCWGG sites", "test": "Nucleoside LC-MS/MS of genomic DNA after in vivo expression of Dcm variants", "conditions": "dam-/dcm- E. coli, gDNA"}},
  "data": [
    {"molecule": "5-propynyl-dC [5pyC]", "values": [
      {"measurement": "deamination by A3A of ssDNA with all Cs replaced by the modified base", "setting": "[1]", "result": "undetectable levels of deamination"}
    ]},
    {"molecule": "M.MpeI N374K: CpG M.MpeI Carboxymethyltransferase with a C-terminal His Tag, SEQ ID NO: 1 (lacks His tag) / SEQ ID NO: 2", "values": [
      {"measurement": "change of 5cxmC signal in the added presence of the CmoA plasmid", "setting": "[2]", "result": "an increase in 5cxmC signal"},
      {"measurement": "in vivo plasmid carboxymethylation (5cxmC) by LC-MS/MS", "setting": "[2]", "result": "can be detected and lost"},
      {"measurement": "level of 5cxmC modification across overexpression conditions", "setting": "[2]", "result": "greatest level of 5cxmC modification"},
      {"measurement": "protection of pUC19 plasmid from restriction digestion", "setting": "[3]; CxSAM substrate", "result": "newly gains the ability to transfer CxSAM"},
      {"measurement": "protection of pUC19 plasmid from restriction digestion", "setting": "[3]; SAM substrate", "result": "transfers SAM less efficiently than the WT enzyme"},
      {"measurement": "DNA newly resistant to A3A deamination", "setting": "[4]; CxSAM, A3A deamination", "result": "~ 50%"},
      {"measurement": "DNA modified as 5cxmC (cytosine calls at CpGs after bisulfite)", "setting": "[4]; CxSAM, bisulfite deamination", "result": "~ 50%"},
      {"measurement": "DNA newly modified to be 5mC (cytosine calls at CpGs after bisulfite)", "setting": "[4]; SAM, bisulfite deamination", "result": "~ 60%"},
      {"measurement": "HpaII and MspI digestion pattern of encoding plasmid", "setting": "[5]", "result": "faint ~2 kB band resistant to MspI digestion"}
    ]},
    {"molecule": "B1", "values": [
      {"measurement": "CCWGG sites carboxymethylated (5cxmC relative to total CCWGGs)", "setting": "[6]", "result": "> 1.5", "unit": "%"},
      {"measurement": "formation of 5cxmC in the native E. coli genome", "setting": "[6]", "result": "could catalyze the formation of 5cxmC"},
      {"measurement": "methylation of cytosine (detection of 5mC)", "setting": "[6]", "result": "could methylate cytosine"}
    ]},
    {"molecule": "B2", "values": [
      {"measurement": "formation of 5cxmC in the native E. coli genome", "setting": "[6]", "result": "not"},
      {"measurement": "methylation of cytosine (detection of 5mC)", "setting": "[6]", "result": "could methylate cytosine"}
    ]}
  ]
}
